Reference: patent US8338619B2, “Crystalline form of the zoledronic acid, a process to obtain it and the pharmaceutical composition comprising it” (Gador S.A., priority 2005, dated 2012)

Assay: TGA Kinetics Analysis of dehydration (constant heating rate thermogravimetry, ASTM E1641)
Assay type: physicochemical
Procedure: In this Example, thermogravimetric analysis (TGA) is used as an analytical methodology to quantify the thermal stability parameters of solid chemicals. The data generated from these measurements is analyzed to obtain Arrhenius kinetic parameters such us activation energy (Ea) and preexponential factor. The activation energies of two different hydrates—zoledronic acid monohydrate and trihydrate—is obtained to analyze the dehydration reaction of these two forms to anhydrous form so that the their relative solid-state thermal stability can be ranked based on their activation energy values.
Thermogravimetric analysis (TGA) is a thermal analysis technique which measures the amount and rate of change on the weight of a material as a function of temperature or time in a controlled atmosphere. TGA measurements are used primarily to determinate the composition of materials and to predict their thermal stability up to elevate temperatures. However, with proper experimental procedures, additional information about the kinetics of decomposition and in-use lifetime predictions can be obtained.
TGA Kinetics Analysis method covers determination of the kinetic parameters, Arrhenius activation energy preexponential factor by thermogravimetry, based on the assumption that the decomposition to obeys first-order kinetics.
This program utilizes data gathered by running a sample at various heating rates. […]

Row | SMILES | Activation energy (dehydration to anhydrous form) (at 50.0 percent of conversion level, TGA at 5, 10 and 20° C./min from 25 to 200° C., dry nitrogen purge, Monohydrate) [kcal/mol] | solid-state kinetic thermal stability (relative ranking from activation energy) (trihydrate vs monohydrate)
1 | O=P(O)(O)C(O)(Cn1ccnc1)P(=O)(O)O [Zoledronic acid monohydrate, Zoledronic Acid Monohydrate] | 36.33 | 
2 | O=P(O)(O)C(O)(Cn1ccnc1)P(=O)(O)O [Zoledronic acid trihydrate, Zoledronic Acid Trihydrate] |  | greater than monohydrate form
